Data published in PubChem BioAssay (NCI).
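Method: 48-hour compound exposure of cells in 96-well plates, five concentrations, linear interpolation of endpoints. Definition used: TGI = concentration required for complete inhibition of growth.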

How the values were obtained:
Assay in all cases: NCI tumour cell line growth inhibition, 48 h
[1] = test system: U251 CNS
[2] = test system: UACC-257 melanoma
[3] = test system: CCRF-CEM leukemia
[4] = test system: OVCAR-5 ovarian
[5] = test system: EKVX NSCLC
[6] = test system: SK-MEL-5 melanoma
[7] = test system: HOP-62 NSCLC
[8] = test system: SNB-75 CNS
[9] = test system: SK-OV-3 ovarian
[10] = test system: OVCAR-3 ovarian
[11] = test system: HCT-116 colon
[12] = test system: MCF7 breast
[13] = test system: UO-31 renal

| SMILES | TGI [1] | TGI [2] | TGI [3] | TGI [4] | TGI [5] | TGI [6] | TGI [7] | TGI [8] | TGI [9] | TGI [10] | TGI [11] | TGI [12] | TGI [13] |
| --- | --- | --- | --- | --- | --- | --- | --- | --- | --- | --- | --- | --- | --- |
| O=C(Nc1ccccc1)Nn1c(-c2cccs2)nc2ccc(I)cc2c1=O | 64.8 µM | 65.9 µM | 60.8 µM | > 100 µM | 58.6 µM | 40.7 µM | > 100 µM | 25.6 µM | 71.2 µM | 31.8 µM | > 100 µM | 87.7 µM | 80.3 µM |
| O=C1N(CN2CCOCC2)CN(CN2CCOCC2)C(=O)N1Cc1ccccc1 | 56.8 µM | 48.6 µM | 75.8 µM | > 100 µM | > 100 µM | 44.2 µM | > 100 µM | 72.5 µM | > 100 µM | 59.7 µM | 54.4 µM | 82.6 µM | 68.6 µM |
| O=C1c2ccccc2C(=O)c2c1oc(=O)c1ccccc21 | 12.2 µM | 6.75 µM | 16 µM | 14.4 µM | 14.3 µM | 4.51 µM | 24.6 µM | 12.3 µM | > 25 µM | 3.61 µM | 4.27 µM | 13.6 µM | 11.4 µM |
| CC(=O)N1CC[N+](C)(CCCCN2c3ccccc3Sc3cc(N=[N+]=[N-])ccc32)CC1 | > 100 µM | > 100 µM | > 100 µM | > 100 µM | > 100 µM | > 100 µM | > 100 µM | > 100 µM | > 100 µM | > 100 µM | > 100 µM | > 100 µM | > 100 µM |
| CC1(C)CCCCCC(C)(CCCCCCCCCCCO)C1=O (stereo unspecified) | 31.1 µM | 27 µM | 29.7 µM | 31.2 µM | 32 µM | 31.3 µM | 31.6 µM | 29.9 µM | 31.7 µM | 29.9 µM | 28.8 µM | 29.8 µM | 30.9 µM |
| CCOC(=O)NC(NNc1ccc([N+](=O)[O-])cc1[N+](=O)[O-])(C(F)(F)F)C(F)(F)F | 64.6 µM | > 100 µM | 72.3 µM | > 100 µM | > 100 µM | > 100 µM | > 100 µM | > 100 µM | 69.4 µM | > 100 µM | > 100 µM | > 100 µM | 57.6 µM |
| Cc1cc(N(CCC#N)CCC#N)ccc1/C(N=Nc1ccccc1)=N\NC(=O)c1ccccc1 | > 100 µM | > 100 µM | 61.7 µM | > 100 µM | > 100 µM | > 100 µM | > 100 µM | > 100 µM | > 100 µM | > 100 µM | > 100 µM | > 100 µM | 65.1 µM |
| O=Cc1[nH]c(=O)[nH]c(=O)c1CCl | > 100 µM | > 100 µM | > 85.8 µM | > 100 µM | > 100 µM | > 100 µM | > 100 µM | 75.6 µM | > 100 µM | > 100 µM | > 100 µM | > 100 µM | > 100 µM |
| C[C@@H]1OC(=O)C[C@H]2CC(=O)N(CCC3CN(S(=O)(=O)C(F)(F)F)c4ccc(Cc5ccc6c(c5)C(CCN5C[C@H]7[C@@H](CC(=O)O[C@H]7C)CC5=O)CN6S(=O)(=O)C(F)(F)F)cc43)C[C@@H]21 (stereo partly specified) | > 100 µM | > 100 µM | > 100 µM | > 100 µM | > 100 µM | > 100 µM | > 100 µM | > 100 µM | > 100 µM | > 100 µM | > 100 µM | > 100 µM | > 100 µM |
| BrCCC[P+](c1ccccc1)(c1ccccc1)c1ccccc1 | > 100 µM | 48.3 µM | > 100 µM | > 100 µM | > 100 µM | 21 µM | > 100 µM | 59.2 µM | > 100 µM | 38.6 µM | 2.99 µM | > 100 µM | > 100 µM |
| COc1cc(C=Nc2ccc(S(N)(=O)=O)cc2)cc(OC)c1 | > 50 µM | > 50 µM | > 50 µM | > 50 µM | > 50 µM | > 50 µM | > 50 µM | > 50 µM | > 50 µM | > 50 µM | > 50 µM | > 50 µM | > 50 µM |
| O=C1C=CC[C@H](/C=C/C[C@@H](O)C[C@H](O)/C=C/c2ccccc2)O1 | 25.7 µM | 26.9 µM | 19.1 µM | 29.5 µM | 25.2 µM | 27.4 µM | 30.9 µM | 26.4 µM | 28.3 µM | 23.7 µM | 17.4 µM | 24.8 µM | 25.9 µM |
